According to patent publication US10463671B2, “Combination therapy for treating cancer” (Epizyme, Inc., priority 2013, dated 2019):

Test system: glucocorticoid signaling genes in RL cells
Assay: RT2 Glucocorticoid Signaling PCR array
Assay type: cell-based
Settings: 4 days, 1 μM Cpd44, Pred 10-fold below 4-day IC50
Protocol: Gene expression was normalized to array's B2M and fold change compared to DMSO was calculated using the ΔΔCt method.

CCN(c1cc(-c2ccc(CN3CCOCC3)cc2)cc(C(=O)NCc2c(C)cc(C)[nH]c2=O)c1C)C1CCOCC1 [Compound 44]
ACTB Ct value: 15.664 | ACTB ΔCT (B2M): −3.694 | ADARB1 Ct value: 26.650 | ADARB1 ΔCT (B2M): 7.292 | AFF1 Ct value: 26.820 | AFF1 ΔCT (B2M): 7.462 | AK2 Ct value: 20.270 | AK2 ΔCT (B2M): 0.912 | AMPD3 Ct value: 27.191 | AMPD3 ΔCT (B2M): 7.833 | ANGPTL4 Ct value: 29.820 | ANGPTL4 ΔCT (B2M): 10.462 | ANXA4 Ct value: 24.395 | ANXA4 ΔCT (B2M): 5.037 | ARID5B Ct value: 27.333 | ARID5B ΔCT (B2M): 7.975 | ASPH Ct value: 23.466 | ASPH ΔCT (B2M): 4.108 | ATF4 Ct value: 18.269 | ATF4 ΔCT (B2M): −1.089 | B2M Ct value: 19.358 | B2M ΔCT (B2M): 0.000 | BCL6 Ct value: 20.289 | BCL6 ΔCT (B2M): 0.931 | CEBPA Ct value: 36.511 | CEBPA ΔCT (B2M): 17.153 | CEBPB Ct value: 23.765 | CEBPB ΔCT (B2M): 4.407 | COL4A2 Ct value: 31.782 | COL4A2 ΔCT (B2M): 12.424 | CREB1 Ct value: 23.217 | CREB1 ΔCT (B2M): 3.859 | CREB3 Ct value: 24.178 | CREB3L4 Ct value: 23.500 | CREB3L4 ΔCT (B2M): 4.142 | CREB3 ΔCT (B2M): 4.820 | CYB561 Ct value: 38.452 | CYB561 ΔCT (B2M): 19.094 | DDIT4 Ct value: 22.679 | DDIT4 ΔCT (B2M): 3.321 | DUSP1 Ct value: 25.422 | DUSP1 ΔCT (B2M): 6.064 | EDN1 Ct value: 31.815 | EDN1 ΔCT (B2M): 12.457 | EHD3 Ct value: 24.572 | EHD3 ΔCT (B2M): 5.214 | ERRFI1 Ct value: 31.705 | ERRFI1 ΔCT (B2M): 12.347 | FKBP5 Ct value: 21.757 | FKBP5 ΔCT (B2M): 2.399 | FOSL2 Ct value: 30.761 | FOSL2 ΔCT (B2M): 11.403 | GAPDH Ct value: 15.720 | GAPDH ΔCT (B2M): −3.638 | GDPD1 Ct value: 27.394 | GDPD1 ΔCT (B2M): 8.036 | GHRHR Ct value: 37.546 | GHRHR ΔCT (B2M): 18.188 | GLUL Ct value: 28.738 | GLUL ΔCT (B2M): 9.380 | GOT1 Ct value: 22.584 | GOT1 ΔCT (B2M): 3.226 | H6PD Ct value: 25.012 | H6PD ΔCT (B2M): 5.654 | HNRPLL Ct value: 22.844 | HNRPLL ΔCT (B2M): 3.486 | HPRT1 Ct value: 22.013 | HPRT1 ΔCT (B2M): 2.655 | IL1RN Ct value: 28.405 | IL1RN ΔCT (B2M): 9.047 | IL6R Ct value: 29.246 | IL6R ΔCT (B2M): 9.888 | IL10 Ct value: 31.498 | IL10 ΔCT (B2M): 12.140 | KLF13 Ct value: 22.854 | KLF13 ΔCT (B2M): 3.496 | MERTK Ct value: 30.691 | MERTK ΔCT (B2M): 11.333 | MT1E Ct value: 34.215 | MT1E ΔCT (B2M): 14.857 | MT2A Ct value: 24.279 | MT2A ΔCT (B2M): 4.921 | NFKBIA Ct value: 23.710 | NFKBIA ΔCT (B2M): 4.352 | NR3C1 Ct value: 22.616 | NR3C1 ΔCT (B2M): 3.258 | PDCD7 Ct value: 24.406 | PDCD7 ΔCT (B2M): 5.048 | PDP1 Ct value: 25.387 | PDP1 ΔCT (B2M): 6.029 | PER1 Ct value: 25.492 | PER1 ΔCT (B2M): 6.134 | PER2 Ct value: 24.378 | PER2 ΔCT (B2M): 5.020 | PIK3R1 Ct value: 23.908 | PIK3R1 ΔCT (B2M): 4.550 | PLEKHF1 Ct value: 30.520 | PLEKHF1 ΔCT (B2M): 11.162 | POU2F1 Ct value: 24.243 | POU2F1 ΔCT (B2M): 4.885 | POU2F2 Ct value: 21.769 | POU2F2 ΔCT (B2M): 2.411 | RASA3 Ct value: 26.279 | RASA3 ΔCT (B2M): 6.921 | RGS2 Ct value: 25.721 | RGS2 ΔCT (B2M): 6.363 | RPLP0 Ct value: 14.837 | RPLP0 ΔCT (B2M): −4.521 | SESN1 Ct value: 24.425 | SESN1 ΔCT (B2M): 5.067 | SGK1 Ct value: 26.262 | SGK1 ΔCT (B2M): 6.904 | SLC19A2 Ct value: 25.536 | SLC19A2 ΔCT (B2M): 6.178 | SNTA1 Ct value: 25.554 | SNTA1 ΔCT (B2M): 6.196 | SPHK1 Ct value: 31.119 | SPHK1 ΔCT (B2M): 11.761 | SPSB1 Ct value: 26.285 | SPSB1 ΔCT (B2M): 6.927 | STAT5A Ct value: 22.769 | STAT5A ΔCT (B2M): 3.411 | STAT5B Ct value: 22.683 | STAT5B ΔCT (B2M): 3.325 | TBL1XR1 Ct value: 21.663 | TBL1XR1 ΔCT (B2M): 2.305 | TNF Ct value: 24.712 | TNF ΔCT (B2M): 5.354 | TNFAIP3 Ct value: 26.896 | TNFAIP3 ΔCT (B2M): 7.538 | TSC22D3 Ct value: 23.300 | TSC22D3 ΔCT (B2M): 3.942 | USP2 Ct value: 21.420 | USP2 ΔCT (B2M): 2.062 | USP54 Ct value: 26.364 | USP54 ΔCT (B2M): 7.006 | VDR Ct value: 27.736 | VDR ΔCT (B2M): 8.378 | ZFP36 Ct value: 24.374 | ZFP36 ΔCT (B2M): 5.016 | ZHX3 Ct value: 29.785 | ZHX3 ΔCT (B2M): 10.427 | ZNF281 Ct value: 23.667 | ZNF281 ΔCT (B2M): 4.309 | AFF1 ΔΔCT (vs DMSO): −2.006 | ATF4 ΔΔCT (vs DMSO): 0.003 | CEBPB ΔΔCT (vs DMSO): −0.004 | CREB3L4 ΔΔCT (vs DMSO): −0.760 | HNRPLL ΔΔCT (vs DMSO): 0.309 | LOX ΔΔCT (vs DMSO): −0.580 | NFKBIA ΔΔCT (vs DMSO): 0.854 | NR3C1 ΔΔCT (vs DMSO): 0.067 | PDCD7 ΔΔCT (vs DMSO): 0.006 | PLEKHF1 ΔΔCT (vs DMSO): 0.050 | POU2F1 ΔΔCT (vs DMSO): −0.027 | POU2F2 ΔΔCT (vs DMSO): −0.584 | RASA3 ΔΔCT (vs DMSO): −0.009 | SNTA1 ΔΔCT (vs DMSO): 0.040 | STAT5A ΔΔCT (vs DMSO): 0.001 | STAT5B ΔΔCT (vs DMSO): −0.094 | ZFP36 ΔΔCT (vs DMSO): −0.036 | ZNF281 ΔΔCT (vs DMSO): 0.046
